Results: publication PMC9151520 (Archives of Toxicology, 2022)
Where two headings read alike, the source gives them in different places.

Key:
[1] = tested on: p53 signaling (p53RE-bla HCT-116 cells)
[2] = tested on: p53 signaling (p53RE-bla HCT-116 cells); experiment: cells; conditions: Homo sapiens
[3] = tested on: p53 signaling (p53RE-bla HCT-116 cells); remark: listed apart in the source
[4] = tested on: p53 signaling (p53RE-bla HCT-116 cells); experiment: cells; format: cell-based
[5] = tested on: p53 signaling (p53RE-bla HCT-116 cells); experiment: cells; format: cell-based; conditions: Homo sapiens; for EC50: HCT-116
[6] = tested on: p53 signaling (p53RE-bla HCT-116 cells); experiment: cells; format: cell-based; remark: listed apart in the source
[7] = tested on: p53 signaling (p53RE-bla HCT-116 cells); experiment: cells; conditions: Homo sapiens; for EC50: HCT-116
[8] = HCT-116, read-out: p53 activation efficacy
[9] = Homo sapiens, HCT-116, read-out: p53 activation efficacy
[10] = HCT-116, read-out: p53 activation EC50, HLM

SMILES	p53 activation EC50, HLM [1]	EC50 [2, 10] [µM]	Viability EC50, HLM (p53RE-bla HCT-116 cells)	Viability EC50, No MS (p53RE-bla HCT-116 cells)	Viability EC50, RLM (p53RE-bla HCT-116 cells)	Viability Efficacy, HLM (p53RE-bla HCT-116 cells)	Viability Efficacy, No MS (p53RE-bla HCT-116 cells)	Viability Efficacy, RLM (p53RE-bla HCT-116 cells)	p53 activation EC50, No MS [4]	p53 activation Efficacy, No MS [4]	p53 activation EC50, RLM [3]	p53 activation Efficacy, RLM [3]	also measured
Oc1c(Cl)c(Cl)c(Cl)c(Cl)c1Cl [Pentachlorophenol]													EC50, p53 activation, cherry pick confirmation [1]: inactive; Efficacy, p53 activation, cherry pick confirmation [1]: inactive; EC50 ([2]; HCT-116, read-out: EC50, p53 activation, primary screening): 15.5 µM; Emax ([2]; HCT-116, read-out: Efficacy, p53 activation, primary screening): 30.9%; EC50, p53 activation, cherry pick confirmation [3]: inactive; EC50, p53 activation, primary screening [3]: inactive; Efficacy, p53 activation, cherry pick confirmation [3]: inactive; Efficacy, p53 activation, primary screening [3]: inactive; EC50, viability, cherry pick confirmation (p53RE-bla HCT-116 cells): inactive; EC50, viability, primary screening (p53RE-bla HCT-116 cells): inactive; Efficacy, viability, cherry pick confirmation (p53RE-bla HCT-116 cells): inactive; Efficacy, viability, primary screening (p53RE-bla HCT-116 cells): inactive; EC50 ([4]; Homo sapiens, HCT-116, read-out: EC50, p53 activation, cherry pick confirmation): 14.1 µM; EC50 ([4]; Homo sapiens, HCT-116, read-out: EC50, p53 activation, primary screening): 13.4 µM; Emax ([4]; Homo sapiens, HCT-116, read-out: Efficacy, p53 activation, cherry pick confirmation): 32.5%; Emax ([4]; Homo sapiens, HCT-116, read-out: Efficacy, p53 activation, primary screening): 47.3%
COC(=O)N(OC)c1ccccc1COc1ccn(-c2ccc(Cl)cc2)n1 [Pyraclostrobin]													p53 activation EC50 [1]: inactive; Emax [2, 8]: 36.3%; p53 activation EC50 [3]: inactive; p53 activation efficacy [3]: inactive; Viability EC50 (p53RE-bla HCT-116 cells): inactive; Viability efficacy (p53RE-bla HCT-116 cells): inactive; p53 activation efficacy [4]: 41.5523; Emax [4, 9]: 36.4%; EC50 ([4]; read-out: p53 activation EC50): 2.62 µM
CNP(=O)(OC)Oc1ccc(C(C)(C)C)cc1Cl (stereo not drawn) [Crufomate]	inactive	4.17	inactive	inactive	inactive	inactive	inactive	inactive	inactive	inactive			EC50 [5]: 3.29 µM; EC50 ([6]; Homo sapiens, HCT-116, 0.5 h): 0.33 µM; EC50 [7]: 4.36 µM; Emax ([7]; HCT-116, read-out: efficacy): 66.6%
CNC(=O)Oc1ccc2c(c1)[C@]1(C)CCN(C)[C@@H]1N2C [Physostigmine]	inactive	7.07	inactive	inactive	inactive	inactive	inactive	inactive	inactive	inactive	inactive	inactive	
CCOP(=S)(OCC)OP(=S)(OCC)OCC [Sulfotepp]	inactive	21.6	inactive	inactive	inactive	inactive	inactive	inactive	inactive	inactive			EC50 [5]: 16.6 µM; Emax ([5]; HCT-116, read-out: efficacy): 42.1%; EC50 [6]: Inactive; EC50 [7]: 14.3 µM; Emax ([7]; HCT-116, read-out: efficacy): 37.4%
Cl[C@H]1[C@H](Cl)[C@@H](Cl)[C@H](Cl)[C@@H](Cl)[C@@H]1Cl [beta-Hexachlorocyclohexane]	inactive	47.3	inactive	inactive	inactive	inactive	inactive	inactive	inactive	inactive	inactive	inactive	
Nc1nc(Cl)nc2c1ncn2[C@H]1C[C@H](O)[C@@H](CO)O1 [Cladribine]													p53 activation EC50 [1]: inactive; Emax [7, 8]: 45.7%; Emax [2, 8]: 47.1%; p53 activation efficacy [3]: 33.0267; Viability EC50 (p53RE-bla HCT-116 cells): inactive; Viability efficacy (p53RE-bla HCT-116 cells): inactive; p53 activation efficacy [4]: 91.229; Emax [4, 9]: 81%; EC50 ([4]; read-out: p53 activation EC50): 0.665 µM
COP(=S)(OC)Oc1ccc(S(N)(=O)=O)cc1 [Cythioate]	inactive	3.59	inactive	inactive	inactive	inactive	inactive	inactive	inactive	inactive	inactive	inactive	
